Experiments:
[1] = ACD855 Phase I SAD study, cohort 1, plasma pharmacokinetics; type: in vivo; conditions: human, 1 mg oral
Experimental: (§1) The clinical efficacy, safety, and pharmacokinetics (PK) of ACD855 have been evaluated in various domestic animals for the use as a veterinary drug. […] Based on pharmacology studies in rodents and safety studies in rat and dog, the first oral dose in an initiated Phase I single ascending dose (SAD) study (EudraCT No. 2018-002320-16), in healthy volunteers was set to 1 mg. […] The study was prematurely terminated after interim PK analysis of the first cohort, and long-term follow-up of the dosed subjects was performed.

[2] = Allometric scaling prediction of ACD855 elimination half-life in man; set-up: species or system human
Experimental: as §1

[3] = ACD855 mutagenic/genotoxic potential
Experimental: as §1

[4] = ACD855 clinical signs in dogs; type: in vivo
[5] = mice; cited from earlier work
[6] = set-up: method as in PMID 37394539; conditions: cited from earlier work

concentration at 280 days ([1]; all subjects but one, detection limit 1 ng/mL, read-out: plasma level at 280 days): > 1 ng/mL | half-life ([1]; cohort 1, healthy volunteers, read-out: elimination half-life in plasma in humans, average (converted)): 68 days | predicted elimination half-life in man [2]: 4.6 days | notable clinical signs in dogs [4]: gastrointestinal disturbance
SMILES: Cc1cc(-n2c(=O)[nH]c(=O)n(C)c2=O)ccc1Oc1ccc(S(=O)(=O)C(F)(F)F)cc1 [ACD855, Ponazuril]
mutagenic or genotoxic potential [3]: no indication of any mutagenic or genotoxic potential | effect in preclinical in vivo cognition models [5]: pro-cognitive effects | effect in the forced swim test model [6]: anti-depressant-like effects
